Measurements from ChEMBL document CHEMBL1151893, “Synthesis of analogs of forodesine HCl, a human purine nucleoside phosphorylase inhibitor-Part I” (Bioorg Med Chem Lett, 2009).

Target: T1, Purine nucleoside phosphorylase (Homo sapiens, UniProt P00491)
T1 sequence (P00491 whole entry): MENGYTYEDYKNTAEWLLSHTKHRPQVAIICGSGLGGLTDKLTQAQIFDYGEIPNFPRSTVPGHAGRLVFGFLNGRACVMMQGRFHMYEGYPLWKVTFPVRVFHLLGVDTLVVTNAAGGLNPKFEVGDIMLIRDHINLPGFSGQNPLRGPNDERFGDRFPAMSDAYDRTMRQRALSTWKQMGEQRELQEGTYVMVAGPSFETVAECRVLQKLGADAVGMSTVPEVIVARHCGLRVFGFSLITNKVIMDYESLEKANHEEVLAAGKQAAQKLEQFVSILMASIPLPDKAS
Test: Inhibition of human purine nucleoside phosphorylase

| IC50 [nM] | SMILES |
| --- | --- |
| 100 | O=c1[nH]cnc2c([C@@]3(CO)NC[C@H](O)[C@@H]3O)c[nH]c12 |
| 100 | O=c1[nH]cnc2cc([C@@H]3N[C@H](CO)[C@@H](O)[C@H]3O)[nH]c12 |
| 100 | O=C(O)c1[nH]c2c(=O)[nH]cnc2c1[C@@H]1N[C@H](CO)[C@@H](O)[C@H]1O |
